Results: patent US20190183908A1 (priority 2016, published 2019)
“Also recorded” adds a separate entry of the source.

Legend:
Arginase1 = system: Arginase1; design: species or system mice; conditions: mouse, in vivo
CD206+ M2 macrophages = system: CD206+ M2 macrophages; design: species or system mice; conditions: mouse, in vivo
TNF-α [1] = system: TNF-α; design: species or system mice; conditions: mouse, in vivo
UV induced apoptosis = conditions: mouse, in vivo
M2:M1 macrophage ratio = system: M2:M1 macrophage ratio; design: species or system mice; conditions: mouse, in vivo
[2] = system: nitrogen mustard exposed mice; conditions: mouse, in vivo, ip; cited from earlier work
[3] = system: LC3 in F4/80+ macrophages; design: species or system mice; conditions: mouse, in vivo
[4] = system: LC3 in CD206+ macrophages; design: species or system mice; conditions: mouse, in vivo
UV irradiated mice = system: UV irradiated mice; design: species or system C57BL/6 mice; conditions: mouse, in vivo
iNOS [5] = system: iNOS; design: species or system mice; conditions: mouse, in vivo
MMP9 = system: MMP9; design: species or system mice; conditions: mouse, in vivo
[6] = system: LC3 in CD163+ macrophages; design: species or system human; conditions: in vivo, po
arginase-1 = system: arginase-1; design: species or system human; conditions: in vivo
[7] = system: UVR-irradiated skin of healthy adults; design: species or system human; conditions: in vivo
IL-6 = system: IL-6; design: species or system human; conditions: in vivo, po
Valchlor-exposed skin [8] = type: in vivo, human
Valchlor-exposed skin [9] = conditions: human, in vivo
TNF-α [10] = system: TNF-α; design: species or system human; conditions: in vivo, po
Valchlor-exposed skin [11] = system: Valchlor-exposed skin; design: species or system human; conditions: in vivo
COX-2 = system: COX-2; design: species or system human; conditions: in vivo, po
iNOS [12] = system: iNOS; design: species or system human; conditions: in vivo, po
[13] = system: UVR-irradiated skin of healthy adults; type: in vivo, human; conditions: N=4
TNF-α [14] = system: TNF-α; design: species or system human; conditions: in vivo, po; remark: listed apart in the source
[15] = system: UVR-irradiated skin of healthy adults; design: species or system human; conditions: in vivo; remark: listed apart in the source

For 25(OH)D, the “arg1 staining in CD206+ cells” value (Arginase1) was “selectively stain for arg1 in CD206+ cells”, the “M2 macrophages (CD206+) relative to M1” value (CD206+ M2 macrophages) was “more M2 cells co-localizing with LC3; also recorded: expands the M2 compared to M1” and the “Gene expression of TNF (TNF-α)” value (TNF-α [1]) was “sustained inhibition; also recorded: significantly suppressed; also recorded: suppresses”. For the same compound, the “UV mediated apoptotic cell death (TUNEL+ cells)” value (UV induced apoptosis) was “significantly diminished”, the “M2:M1 ratio” value (M2:M1 macrophage ratio) was “significantly altered” and the “M2:M1 ratio in presence or absence of VD” value (M2:M1 macrophage ratio) was “comparable”. For the same compound, the “Acute skin and systemic inflammation, tissue damage and mortality” value [2] was “sufficient to prevent acute skin and systemic inflammation and rescue mice from extensive tissue damage and mortality”, the “Elevation of macrophage-specific autophagy (LC3 punctae) compared to UV induced autophagy” value [3] was 5 fold and the “LC3+CD206+ cells in the dermis” value [4] was “significantly increased number of cells”. The “Skin inflammation, wound progression and histological architecture” value (UV irradiated mice; ip) was “prevented excessive cutaneous damage; also recorded: delayed skin inflammation, arrested skin wound progression and accelerated wound repair; also recorded: protects from UV induced necrosis, dyskeratosis and vacuolation of the basal layer”, the “Gene expression of iNOS (NOS2)” value (iNOS [5]) was “significantly suppressed; also recorded: suppresses” and the “Gene expression of MMP9” value (MMP9) was “sustained inhibition; also recorded: significantly suppressed; also recorded: suppresses”.
In the case of `Cn1cnc(N)c2ncnc1-2` [3-MA, 3-methyladenine], the “arg1 expression in CD206+ cells under inhibition of autophagy” value (Arginase1) is reported as “diminished arg1 expression”, the “M2 macrophages / cellular profile under blockade of autophagy” value (CD206+ M2 macrophages) is reported as “depleted functional M2 macrophages; also recorded: recapitulates cellular profile observed with UV while quenching LC3 expression” and the “TNF-α under blockade of autophagy” value (TNF-α [1]) is reported as “increasing”. The “UV induced and VD induced autophagy” value [3] was “inhibited”, the “LC3 expression in skin under inhibition of autophagy” value [4] was “abolished LC3 expression” and the “UV-induced inflammation / VD mediated protection under blockade of autophagy” value (UV irradiated mice) was “exacerbated UV-induced inflammation; also recorded: reversed VD mediated protection from inflammation”. For the same compound, the “MMP9 under blockade of autophagy” value (MMP9) was “increasing”.
For `C=C1CC[C@H](O)C/C1=C/C=C1\CCC[C@]2(C)[C@@H]([C@H](C)CCCC(C)C)CC[C@@H]12` [vitamin D3, cholecalciferol], the “LC3 co-localized with CD163+ macrophages in human skin” value [6] was “upregulates cells that co-localize LC and CD163; also recorded: enhanced LC3”, the “Arginase-1 protein expression localized to CD163+ macrophages” value (arginase-1) was “increased expression” and the “Histologic structural damage (epidermal vesiculation, edema formation)” value [7] was “improved”. The “Reduction in IL-6” value (IL-6) was 112%, the “Reduction in skin vesication on histology” value (Valchlor-exposed skin [8]; in vivo, po) was 50% and the Vesication by histology (Valchlor-exposed skin [8]; n=2) was 0%. The “Net skin symptom Irritation, Day 0” value (Valchlor-exposed skin [9]) was 1.0, the “Net skin symptom Irritation, Day 1” value (Valchlor-exposed skin [9]) was 0.5 and the “Net skin symptom Irritation, Day 2” value (Valchlor-exposed skin [9]) was 1.1. The “Net skin symptom Irritation, Day 3” value (Valchlor-exposed skin [9]) was 0.8, the “Net skin symptom Irritation, Day 4” value (Valchlor-exposed skin [9]) was 0.5 and the “Net skin symptom Irritation, Day 5” value (Valchlor-exposed skin [9]) was 0.1. The “Net skin symptom Irritation, Day 6” value (Valchlor-exposed skin [9]) was −0.2, the “Net skin symptom Irritation, Slope” value (Valchlor-exposed skin [9]) was −0.1202 ± 0.05 and the “Net skin symptom Warmth, Day 0” value (Valchlor-exposed skin [9]) was 1.0. For the same compound, the “Net skin symptom Warmth, Day 1” value (Valchlor-exposed skin [9]) was 0.5, the “Net skin symptom Warmth, Day 2” value (Valchlor-exposed skin [9]) was −0.2 and the “Net skin symptom Warmth, Day 3” value (Valchlor-exposed skin [9]) was 0.0. The “Net skin symptom Warmth, Day 4” value (Valchlor-exposed skin [9]) was −1.0, the “Net skin symptom Warmth, Day 5” value (Valchlor-exposed skin [9]) was 0.3 and the “Net skin symptom Warmth, Day 6” value (Valchlor-exposed skin [9]) was −0.3. The “Net skin symptom Warmth, Slope” value (Valchlor-exposed skin [9]) was −0.1296 + 0.083, the “Patient reported skin symptoms (warmth, irritation)” value (Valchlor-exposed skin [9]) was “demonstrable reduction; also recorded: decreased” and the “Skin pain, burning sensation, and itch” value (Valchlor-exposed skin [9]) was “no observable difference”. For the same compound, the “Skin expression of TNF-α compared to placebo” value (TNF-α [10]) was “reduced expression; also recorded: lower”, the “Skin thickness (arm 2 − arm 1) compared to placebo” value (Valchlor-exposed skin [11]) was “trend in decreasing thickness; also recorded: reduction in skin thickness” and the “Reduction in COX-2” value (COX-2) was 80%. For the same compound, the “Skin expression of iNOS compared to placebo” value (iNOS [12]) was “reduced expression; also recorded: lower”, the “Erythema Δa*24 hr, Mean (95% CI)” value [13] was 2.0 (−2.1.6.1) and the “Reduction in TNF-α” value (TNF-α [14]) was 66%. The “Skin thickness after irradiation with higher doses” value [15] was “trend for decreased skin thickness”.
